According to PubChem BioAssay AID1195 (EPA DSSTox, 2008):

Test system: human maximum recommended daily dose, FDA database
Experiment: DSSTox (FDAMDD) FDA Maximum (Recommended) Daily Dose Database
Conditions: active compounds read low
In short: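 MRDD values come from clinical trials with daily oral dosing, usually for 3–12 months, for the average adult, in mg/day converted to mg/kg-bw/day assuming 60 kg. Antineoplastic mg/m2 doses are divided by 37. Activity score maps log10(1/MRDD mmol) onto 1–100.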

[1] = TherapeuticCategory: antihistaminic
[2] = TherapeuticCategory: antibacterial
[3] = TherapeuticCategory: antipsychotic
[4] = TherapeuticCategory: narcotic analgesic
[5] = TherapeuticCategory: antineoplastic

With `C=CCC1(CC=C)C(=O)NC(=O)NC1=O` as the molecule, how does the maximum recommended daily dose (mmol/kg-bw/day) (TherapeuticCategory: sedative, hypnotic) read?
Its maximum recommended daily dose (mmol/kg-bw/day) is 0.016.

`CN1CCCC(=C(c2cccs2)c2cccs2)C1` was tested. Which maximum recommended daily dose (mmol/kg-bw/day) (TherapeuticCategory: antitussive) did it give?
Its maximum recommended daily dose (mmol/kg-bw/day) is 0.0182.

For `C[C@H](N)Cc1ccccc1`, which maximum recommended daily dose (mmol/kg-bw/day) (TherapeuticCategory: CNS stimulant, anorexic) is on record?
The maximum recommended daily dose (mmol/kg-bw/day) was 0.0074.

How did the maximum recommended daily dose (mmol/kg-bw/day) (TherapeuticCategory: antidepressant) turn out when `CN(CCCN1c2ccccc2CCc2ccccc21)CC(=O)c1ccc(Cl)cc1` was run?
The maximum recommended daily dose (mmol/kg-bw/day) was 0.00835.

How did the maximum recommended daily dose (mmol/kg-bw/day) (TherapeuticCategory: anticholinergic, smooth muscle relaxant) turn out when `CCN(CC)CCSC(=O)C(c1ccccc1)c1ccccc1` was run?
The maximum recommended daily dose (mmol/kg-bw/day) was 0.0153.

Which maximum recommended daily dose (mmol/kg-bw/day) [1] does the source give for `CC(C1=C(CCN(C)C)Cc2ccccc21)c1ccccn1` (configuration not stated) here?
The maximum recommended daily dose (mmol/kg-bw/day) was 0.000342.

Which maximum recommended daily dose (mmol/kg-bw/day) (TherapeuticCategory: anticonvulsant) does the source give for `Cc1ccsc1C(=CCCN1CCC[C@@H](C(=O)O)C1)c1sccc1C` here?
Its maximum recommended daily dose (mmol/kg-bw/day) is 0.00285.

With `NC(N)=NS(=O)(=O)c1ccc(N)cc1` as the molecule, how does the maximum recommended daily dose (mmol/kg-bw/day) [2] read?
Its maximum recommended daily dose (mmol/kg-bw/day) is 0.0934.

Which maximum recommended daily dose (mmol/kg-bw/day) [3] does the source give for `CC(=O)c1ccc2c(c1)N(CCCN1CCC(CCO)CC1)c1ccccc1S2` here?
Its maximum recommended daily dose (mmol/kg-bw/day) is 0.0065.

For `C[C@]12C=CC(=O)C=C1CC[C@@H]1[C@@H]2CC[C@@]2(C)[C@H]1CC[C@]2(C)O`, which maximum recommended daily dose (mmol/kg-bw/day) (TherapeuticCategory: androgen) is on record?
Its maximum recommended daily dose (mmol/kg-bw/day) is 0.000222.

`CCC(=O)O[C@]1(C(=O)COC(C)=O)CC[C@H]2[C@@H]3C[C@H](C)C4=CC(=O)C=C[C@]4(C)[C@H]3[C@@H](O)C[C@@]21C` was tested. Which maximum recommended daily dose (mmol/kg-bw/day) (TherapeuticCategory: glucocorticoid) did it give?
The maximum recommended daily dose (mmol/kg-bw/day) was 0.00882.

How did the maximum recommended daily dose (mmol/kg-bw/day) [4] turn out when `CN1CC[C@]23CCCC[C@H]2[C@H]1Cc1ccc(O)cc13` was run?
The maximum recommended daily dose (mmol/kg-bw/day) was 0.000583.

Which maximum recommended daily dose (mmol/kg-bw/day) [5] does the source give for `CC(CN1CC(=O)NC(=O)C1)N1CC(=O)NC(=O)C1` (configuration not stated) here?
Its maximum recommended daily dose (mmol/kg-bw/day) is 0.0155.

For `CN1CCN(C2=Nc3cc(Cl)ccc3Nc3ccccc32)CC1`, which maximum recommended daily dose (mmol/kg-bw/day) [3] is on record?
Its maximum recommended daily dose (mmol/kg-bw/day) is 0.0459.

Which maximum recommended daily dose (mmol/kg-bw/day) [5] does the source give for `O[C@H]([C@H](O)[C@@H](O)CBr)[C@H](O)CBr` here?
The maximum recommended daily dose (mmol/kg-bw/day) was 0.0158.

`COc1cccc([C@@]2(O)CCCC[C@@H]2CN(C)C)c1` was tested. Which maximum recommended daily dose (mmol/kg-bw/day) (TherapeuticCategory: analgesic) did it give?
The maximum recommended daily dose (mmol/kg-bw/day) was 0.0253.

How did the maximum recommended daily dose (mmol/kg-bw/day) (TherapeuticCategory: andrenergic, nasal decongestant) turn out when `CNC(C)CC1CCCCC1` (configuration not stated) was run?
The maximum recommended daily dose (mmol/kg-bw/day) was 0.0161.

Which maximum recommended daily dose (mmol/kg-bw/day) (TherapeuticCategory: anticholinergic, antiparkinsonian) does the source give for `OC(CCN1CCCCC1)(c1ccccc1)C1CCCCC1` (configuration not stated) here?
The maximum recommended daily dose (mmol/kg-bw/day) was 0.000829.

Which maximum recommended daily dose (mmol/kg-bw/day) (TherapeuticCategory: bronchodilator) does the source give for `Cn1c(=O)c2c(ncn2CC(O)CO)n(C)c1=O` (configuration not stated) here?
Its maximum recommended daily dose (mmol/kg-bw/day) is 0.236.

With `CC(=O)OC(C)C[N+](C)(C)C` (configuration not stated) as the molecule, how does the maximum recommended daily dose (mmol/kg-bw/day) (TherapeuticCategory: cholinergic, diagnostic aid) read?
The maximum recommended daily dose (mmol/kg-bw/day) was 0.00213.

With `CC(=O)OCCN1CCN(CCCN2c3ccccc3Sc3ccc(Cl)cc32)CC1` as the molecule, how does the maximum recommended daily dose (mmol/kg-bw/day) [3] read?
Its maximum recommended daily dose (mmol/kg-bw/day) is 0.00336.

For `Cn1cc[nH]c1=S`, which maximum recommended daily dose (mmol/kg-bw/day) (TherapeuticCategory: antihyperthyroid) is on record?
The maximum recommended daily dose (mmol/kg-bw/day) was 0.00876.

How did the maximum recommended daily dose (mmol/kg-bw/day) (TherapeuticCategory: antihypertensive) turn out when `CCOC(=O)[C@H](CCc1ccccc1)N[C@@H](C)C(=O)N1[C@H](C(=O)O)C[C@@H]2CCC[C@@H]21` was run?
The maximum recommended daily dose (mmol/kg-bw/day) was 0.000799.

For `COC(=O)C1=C(C)NC(C)=C(C(=O)OCCN(C)Cc2ccccc2)C1c1cccc([N+](=O)[O-])c1` (configuration not stated), which maximum recommended daily dose (mmol/kg-bw/day) (TherapeuticCategory: antianginal, antihypertensive) is on record?
Its maximum recommended daily dose (mmol/kg-bw/day) is 0.00417.

With `CC(C)NCC(O)COc1cccc2[nH]ccc12` (configuration not stated) as the molecule, how does the maximum recommended daily dose (mmol/kg-bw/day) (TherapeuticCategory: antihypertensive, antianginal, antiarrhythmic, antiglaucomic) read?
The maximum recommended daily dose (mmol/kg-bw/day) was 0.00403.

With `CC(C)(N)Cc1ccccc1Cl` as the molecule, how does the maximum recommended daily dose (mmol/kg-bw/day) (TherapeuticCategory: anorexic) read?
Its maximum recommended daily dose (mmol/kg-bw/day) is 0.00454.

Which maximum recommended daily dose (mmol/kg-bw/day) (TherapeuticCategory: cathartic) does the source give for `O=C(O)c1cc(O)c2c(c1)[C@H]([C@H]1c3cc(C(=O)O)cc(O)c3C(=O)c3c(O[C@@H]4O[C@H](CO)[C@@H](O)[C@H](O)[C@H]4O)cccc31)c1cccc(O[C@@H]3O[C@H](CO)[C@@H](O)[C@H](O)[C@H]3O)c1C2=O` here?
Its maximum recommended daily dose (mmol/kg-bw/day) is 0.0194.

`N[C@@H]1CONC1=O` was tested. Which maximum recommended daily dose (mmol/kg-bw/day) [2] did it give?
Its maximum recommended daily dose (mmol/kg-bw/day) is 0.164.

`CC(C)(Oc1ccc(C2CC2(Cl)Cl)cc1)C(=O)O` (configuration not stated) was tested. Which maximum recommended daily dose (mmol/kg-bw/day) (TherapeuticCategory: antihyperlipoproteinemic) did it give?
The maximum recommended daily dose (mmol/kg-bw/day) was 0.00578.

How did the maximum recommended daily dose (mmol/kg-bw/day) [2] turn out when `Cc1nc(N/C(N)=N/S(=O)(=O)c2ccc(N)cc2)oc1C` was run?
Its maximum recommended daily dose (mmol/kg-bw/day) is 0.129.

How did the maximum recommended daily dose (mmol/kg-bw/day) [4] turn out when `CN1CC[C@]23c4c5ccc(O)c4O[C@H]2C(=O)CC[C@@]3(O)[C@H]1C5` was run?
The maximum recommended daily dose (mmol/kg-bw/day) was 0.000498.

How did the maximum recommended daily dose (mmol/kg-bw/day) (TherapeuticCategory: antiemetic) turn out when `CN1CCN(CCCN2c3ccccc3Sc3ccc(Cl)cc32)CC1` was run?
Its maximum recommended daily dose (mmol/kg-bw/day) is 0.00447.

With `C1CCC(C(CC2CCCCN2)C2CCCCC2)CC1` (configuration not stated) as the molecule, how does the maximum recommended daily dose (mmol/kg-bw/day) (TherapeuticCategory: vasodilator, Ca channel blocker, diuretic) read?
The maximum recommended daily dose (mmol/kg-bw/day) was 0.018.

For `c1ccc(CN(CC2=NCCN2)c2ccccc2)cc1`, which maximum recommended daily dose (mmol/kg-bw/day) [1] is on record?
Its maximum recommended daily dose (mmol/kg-bw/day) is 0.0188.

How did the maximum recommended daily dose (mmol/kg-bw/day) [2] turn out when `CO/N=C(\C(=O)N[C@@H]1C(=O)N2C(C(=O)O)=C(CSc3nc(C)c(CC(=O)O)s3)CS[C@H]12)c1csc(N)n1` was run?
Its maximum recommended daily dose (mmol/kg-bw/day) is 0.057.

With `COC(=O)C1=C(C)NC(C)=C(C(=O)O[C@@H]2CCCN(Cc3ccccc3)C2)[C@@H]1c1cccc([N+](=O)[O-])c1` as the molecule, how does the maximum recommended daily dose (mmol/kg-bw/day) (TherapeuticCategory: antihypertensive, Ca channel blocker) read?
The maximum recommended daily dose (mmol/kg-bw/day) was 0.000263.

How did the maximum recommended daily dose (mmol/kg-bw/day) (TherapeuticCategory: antidiabetic) turn out when `Cc1ccc(S(=O)(=O)NC(=O)NN2CC3CCCC3C2)cc1` (configuration not stated) was run?
The maximum recommended daily dose (mmol/kg-bw/day) was 0.0165.
